In the CheMixHub viscosity set:
Values joined by “and” are separate entries in the source; they are usually repeats but may differ in a detail not shown here. Equal values may be shown once. ± gives the uncertainty stated by the source. Values belong to the compound of their own block, whether it stands above or below them.

viscosity (303.15 K, 101 kPa): 25.41 ± 2.5 mPa·s
viscosity (313.15 K, 101 kPa): 15.31 ± 1.5 mPa·s
viscosity (323.15 K, 101 kPa): 9.867 ± 0.99 mPa·s
Structure (SMILES): NCCNCCNCCN

viscosity (293.15 K, 101.33 kPa): 92.53 ± 2.9 mPa·s
viscosity (298.15 K, 101.33 kPa): 72.51 ± 2 mPa·s
viscosity (303.15 K, 101.33 kPa): 57.87 ± 1.5 mPa·s
viscosity (308.15 K, 101.33 kPa): 47.34 ± 1.2 mPa·s
viscosity (313.15 K, 101.33 kPa): 39.02 ± 1 mPa·s
viscosity (318.15 K, 101.33 kPa): 32.59 ± 0.85 mPa·s
Structure (SMILES): CCn1cc[n+](CCOC)c1.O=S(=O)([O-])C(F)(F)F

viscosity (306.3 K, 101.33 kPa): 2.685 ± 0.16 mPa·s
Structure (SMILES): [2H]OCCCCC

viscosity (298.15 K, 100 kPa): 900.5 ± 88 mPa·s
viscosity (303.15 K, 100 kPa): 625.4 ± 54 mPa·s
viscosity (308.15 K, 100 kPa): 362.1 ± 24 mPa·s
viscosity (313.15 K, 100 kPa): 260 ± 15 mPa·s
viscosity (318.15 K, 100 kPa): 184.4 ± 8.3 mPa·s
viscosity (323.15 K, 100 kPa): 136.8 ± 4.8 mPa·s
Structure (SMILES): COCCn1cc[n+](C)c1.C[C@@H](O)[C@H](N)C(=O)[O-]

More lines, now with the values behind:

Structure (SMILES): COS(=O)(=O)[O-].Cn1cc[n+](C)c1
viscosity (298.15 K, 100 kPa): 93.4 ± 2.4 mPa·s
viscosity (298.15 K, 101 kPa): 78 ± 4.7 mPa·s
viscosity (303.15 K, 101 kPa): 61.9 ± 3.7 mPa·s
viscosity (308.15 K, 101 kPa): 49.9 ± 3 mPa·s
viscosity (313.15 K, 101 kPa): 40.9 ± 2.5 mPa·s

Structure (SMILES): CCOC(=O)C(Br)CC (stereo not given)
viscosity (303.15 K, 101 kPa): 1.529 ± 0.0092 mPa·s

Structure (SMILES): CC(O)CCO (stereo not given)
viscosity (298.15 K, 101 kPa): 96.7 ± 2.2 mPa·s and 96.8 ± 1.2 mPa·s
viscosity (303.15 K, 101 kPa): 69.7 ± 1.5 mPa·s and 70.93 ± 0.56 mPa·s
viscosity (308.15 K, 101 kPa): 51.8 ± 1.1 mPa·s and 53.72 ± 0.28 mPa·s
viscosity (313.15 K, 101 kPa): 40 ± 0.8 mPa·s and 40.13 ± 0.26 mPa·s
viscosity (318.15 K, 101 kPa): 29.9 ± 0.6 mPa·s and 31.22 ± 0.2 mPa·s

Structure (SMILES): CCn1cc[n+](C)c1C.O=S(=O)([N-]S(=O)(=O)C(F)(F)F)C(F)(F)F
viscosity (293.15 K, 101.3 kPa): 88.09 ± 1.9 mPa·s
viscosity (298.15 K, 101.3 kPa): 69.84 ± 1.5 mPa·s
viscosity (303.15 K, 101.3 kPa): 56.37 ± 1.2 mPa·s
viscosity (308.15 K, 101.3 kPa): 46.1 ± 0.96 mPa·s
viscosity (313.15 K, 101.3 kPa): 38.26 ± 0.8 mPa·s
viscosity (318.15 K, 101.3 kPa): 32.15 ± 0.67 mPa·s
viscosity (323.15 K, 101.3 kPa): 27.31 ± 0.57 mPa·s

Structure (SMILES): c1ccncc1
viscosity (293.15 K, 100 kPa): 0.9801 ± 0.012 mPa·s
viscosity (298 K, 101.3 kPa): 0.882 ± 0.012 mPa·s
viscosity (298.15 K, 100 kPa): 0.9155 ± 0.011 mPa·s
viscosity (298.15 K, 101.3 kPa): 0.903 ± 0.024 mPa·s
viscosity (298.25 K, 101.33 kPa): 0.88 ± 0.044 mPa·s
viscosity (303.15 K, 100 kPa): 0.8568 ± 0.011 mPa·s
viscosity (303.15 K, 101.33 kPa): 0.828 ± 0.022 mPa·s
viscosity (308.15 K, 100 kPa): 0.8032 ± 0.01 mPa·s
viscosity (308.15 K, 101 kPa): 0.76 ± 0.02 mPa·s and 0.7914 ± 0.0073 mPa·s
viscosity (308.15 K, 101.3 kPa): 0.75 ± 0.02 mPa·s
viscosity (308.15 K, 101.33 kPa): 0.78 ± 0.009 mPa·s
viscosity (313.15 K, 100 kPa): 0.7546 ± 0.0096 mPa·s
viscosity (313.15 K, 101 kPa): 0.714 ± 0.007 mPa·s (2×) and 0.724 ± 0.013 mPa·s
viscosity (313.15 K, 101.33 kPa): 0.8 ± 0.04 mPa·s
viscosity (318.15 K, 100 kPa): 0.7103 ± 0.0092 mPa·s
viscosity (318.15 K, 101 kPa): 0.6939 ± 0.0067 mPa·s
viscosity (318.15 K, 101.3 kPa): 0.675 ± 0.018 mPa·s
viscosity (318.15 K, 101.33 kPa): 0.66 ± 0.008 mPa·s
viscosity (323.15 K, 100 kPa): 0.6698 ± 0.0088 mPa·s
viscosity (323.15 K, 101 kPa): 0.645 ± 0.0097 mPa·s and 0.6248 ± 0.017 mPa·s

Structure (SMILES): O=C(Cl)c1ccccc1
viscosity (303.15 K, 101 kPa): 1.244 ± 0.015 mPa·s
